Results on 11 molecules are retold here after ChEMBL document CHEMBL1201862, “PubChem BioAssay data set” (2004).

Some test systems named below: SNB-19; BT-549; MDA-N; OVCAR-5; UACC-257; SNB-75; SK-OV-3; NCI-H226; U-251; RXF 393; SN12C; HCC 2998; Hs-578T; Malme-3M; UACC-62; HOP-92; CCRF-CEM; NCI-H460; OVCAR-3.
Assay in all cases: NCI anticancer screen, dose series, 48 h

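Results reflect a 48-hour exposure of cells in 96-well plates to compound at five concentrations. Abbreviation: GI50, concentration required for 50% inhibition of growth.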 Calls of active or inactive are those of the source. No stated cut-off is given here; in the data, active = GI50 up to about 1.1 µM and inactive = higher.

With `O=[N+]([O-])c1ccc(NC(=S)N/N=C(\c2ccccc2)c2ccccn2)cc1`, the GI50 is 1.58 µM (inactive) in the assay on SNB-19; 1.63 µM (inactive) in the assay with BT-549; 1.6 µM (inactive) in the assay with MDA-N; 1.88 µM (inactive) in the assay with OVCAR-5; 1.6 µM (inactive) in the assay with UACC-257; 2.1 µM (inactive) in the assay with SNB-75. Further, the GI50 was 1.4 µM (inactive) with SK-OV-3; 1.47 µM (inactive) with NCI-H226; 1.36 µM (inactive) in the assay on U-251; 1.38 µM (inactive) with RXF 393; 1.48 µM (inactive) in the assay with SN12C; 1.51 µM (inactive) with HCC 2998. Besides, the GI50 with Hs-578T was 3.3 µM (inactive); with Malme-3M it was 1.65 µM (inactive); in the assay on UACC-62 it was 1.24 µM (inactive); with HOP-92, 1.87 µM (inactive); in the assay on CCRF-CEM it was < 0.0184 µM (active); in the assay on NCI-H460 it was 4.85 µM (inactive).

`O=CC1OC(=O)c2cc(O)c(O)c(O)c2-c2c(cc(O)c(O)c2O)C(=O)OC1C(O)C(O)CO` (centres undefined): the GI50 is > 100 µM (inactive) in the assay on SNB-19; 51.4 µM (inactive) in the assay with BT-549; 18.7 µM (inactive) with MDA-N; > 100 µM (inactive) in the assay with OVCAR-5; 82 µM (inactive) in the assay with UACC-257; > 100 µM (inactive) in the assay on SNB-75. The GI50 in the assay with OVCAR-3 is 71 µM (inactive); with NCI-H226, > 100 µM (inactive); in the assay with U-251 it was 17.9 µM (inactive); in the assay with RXF 393, > 100 µM (inactive); with SN12C, 28.5 µM (inactive); in the assay on HCC 2998 it was > 100 µM (inactive). The GI50 was 54 µM (inactive) in the assay with Hs-578T; > 100 µM (inactive) in the assay on Malme-3M; > 100 µM (inactive) in the assay with HOP-92; 38.8 µM (inactive) in the assay on CCRF-CEM; 28.8 µM (inactive) with NCI-H460.

`CCn1c(=O)c2c3ccc(O)cc3[nH]c2c2ccc(O)cc21`: the GI50 in the assay with SNB-19 was > 100 µM (inactive); in the assay on BT-549, > 100 µM (inactive); in the assay with MDA-N, 66.4 µM (inactive); in the assay on OVCAR-5 it was > 100 µM (inactive); in the assay on UACC-257, > 100 µM (inactive); with SNB-75 it was 66.2 µM (inactive). Moreover, the GI50 with SK-OV-3 is > 100 µM (inactive); with OVCAR-3, > 100 µM (inactive); with NCI-H226, > 100 µM (inactive); in the assay with U-251 it was 56.8 µM (inactive); with RXF 393, > 100 µM (inactive); with SN12C, 81.5 µM (inactive). The GI50 in the assay on HCC 2998 was > 100 µM (inactive); with Hs-578T it was 44.1 µM (inactive); in the assay on Malme-3M it was 95.9 µM (inactive); with UACC-62, 57 µM (inactive); in the assay on HOP-92 it was > 100 µM (inactive); with CCRF-CEM, 55.8 µM (inactive).

`CC1C2CC(C(S(=O)(=O)N3CCOCC3)/C2=N\O)C1(C)C` (centres undefined): the GI50 in the assay on SNB-19, in the assay with BT-549, in the assay with MDA-N, with UACC-257, with SNB-75 and in the assay with SK-OV-3 was > 100 µM (inactive) in each case. For the same molecule, the GI50 with OVCAR-3, in the assay on NCI-H226, in the assay with RXF 393, in the assay on SN12C, in the assay with HCC 2998 and in the assay with Hs-578T was > 100 µM (inactive) each time. The GI50 in the assay on Malme-3M, in the assay with UACC-62, in the assay on HOP-92, with CCRF-CEM and with NCI-H460 was > 100 µM (inactive) throughout.

As to `COC(=O)[C@]12CC[C@H]3CN(S(=O)(=O)c4ccc(C)cc4)[C@H]([C@H]31)[C@H](c1ccco1)N2S(=O)(=O)c1ccc(C)cc1`, the GI50 with SNB-19 was > 100 µM (inactive); with BT-549, 30.1 µM (inactive); in the assay with MDA-N it was 24.7 µM (inactive); in the assay with OVCAR-5, > 100 µM (inactive); in the assay on UACC-257, 28.6 µM (inactive); in the assay with SK-OV-3, > 100 µM (inactive). The GI50 with OVCAR-3 is 56.2 µM (inactive); with NCI-H226 it was 42.5 µM (inactive); with U-251, 64.3 µM (inactive); with RXF 393, 16.8 µM (inactive); in the assay with SN12C it was 37.6 µM (inactive); in the assay with HCC 2998, 78.2 µM (inactive). In addition, the GI50 was > 100 µM (inactive) with Hs-578T; 23.8 µM (inactive) with Malme-3M; 19.4 µM (inactive) with UACC-62; 10.1 µM (inactive) in the assay on HOP-92; 45.3 µM (inactive) in the assay with CCRF-CEM; 35.8 µM (inactive) in the assay with NCI-H460.

Consider `CC(=O)OCC1OC(NC(=S)CCSc2nc3ccccc3c(=O)n2-c2ccccc2)C(OC(C)=O)C(OC(C)=O)C1OC(C)=O` (centres undefined), for which the GI50 in the assay on SNB-19 is 34 µM (inactive); with BT-549, 31.4 µM (inactive); with MDA-N it was 44.4 µM (inactive); with OVCAR-5 it was 22.6 µM (inactive); in the assay on UACC-257 it was 30.4 µM (inactive); with SNB-75, 22 µM (inactive). Moreover, the GI50 is 46.9 µM (inactive) in the assay on SK-OV-3; 40.4 µM (inactive) in the assay with OVCAR-3; 50.5 µM (inactive) in the assay on NCI-H226; 38.1 µM (inactive) in the assay with U-251; 18 µM (inactive) in the assay with RXF 393; 68.2 µM (inactive) with SN12C. Besides, the GI50 in the assay on HCC 2998 was 39.3 µM (inactive); in the assay on Hs-578T, 24.8 µM (inactive); in the assay on Malme-3M, > 100 µM (inactive); with UACC-62, 28.4 µM (inactive); in the assay with HOP-92 it was 16.9 µM (inactive); in the assay on CCRF-CEM it was 27.2 µM (inactive). Besides, the GI50 in the assay with NCI-H460 was > 100 µM (inactive).

Consider `CC1=NN=C(N)N/C1=C/C(Sc1ccc(Cl)cc1)c1cccs1` (centres undefined), for which the GI50 with SNB-19 was 16.7 µM (inactive); in the assay on BT-549, 37.9 µM (inactive); with MDA-N, 16.1 µM (inactive); with OVCAR-5 it was 18.5 µM (inactive); in the assay with UACC-257 it was 18.3 µM (inactive); in the assay on SK-OV-3, 12 µM (inactive). Also, the GI50 in the assay on NCI-H226 is 17 µM (inactive); in the assay with U-251 it was 24.5 µM (inactive); with RXF 393 it was 17.4 µM (inactive); in the assay with SN12C it was 26.8 µM (inactive); with HCC 2998, 12.4 µM (inactive); with Hs-578T, 17 µM (inactive). For the same molecule, the GI50 was 13.1 µM (inactive) with Malme-3M; > 10 µM (inactive) with UACC-62; 28.1 µM (inactive) in the assay on HOP-92; 3.52 µM (inactive) in the assay with CCRF-CEM; 13.6 µM (inactive) with NCI-H460.

In the case of `CN1CC[C@@]2(c3cccc(O)c3)CC(=O)/C(=C/c3ccccc3)[C@H]1C2.[O-][Cl+3]([O-])([O-])O`, the GI50 with SNB-19 is 7.31 µM (inactive); in the assay on BT-549, 11.8 µM (inactive); in the assay with MDA-N it was 4.88 µM (inactive); in the assay on OVCAR-5, 14.3 µM (inactive); with UACC-257, 16.1 µM (inactive); in the assay on SNB-75 it was 2.47 µM (inactive). Further, the GI50 was 17.8 µM (inactive) with NCI-H226; 2.59 µM (inactive) with U-251; 8.17 µM (inactive) in the assay on RXF 393; 7.03 µM (inactive) in the assay with SN12C; 10.4 µM (inactive) with HCC 2998; 3.35 µM (inactive) with Hs-578T. Moreover, the GI50 in the assay with Malme-3M is 15 µM (inactive); in the assay on HOP-92, 14.9 µM (inactive); in the assay with CCRF-CEM it was 3.12 µM (inactive); in the assay on NCI-H460 it was 3.52 µM (inactive).

On to `CN(C)c1nc2n(CCO)ccnc-2c(=O)n1`, for which the GI50 in the assay on SNB-19, in the assay on BT-549, in the assay on MDA-N, in the assay with OVCAR-5, in the assay on UACC-257 and in the assay on SNB-75 was > 100 µM (inactive) throughout. Also, the GI50 in the assay with SK-OV-3, in the assay with OVCAR-3, with NCI-H226, with U-251, in the assay on RXF 393 and in the assay with SN12C was > 100 µM (inactive) throughout. Further, the GI50 with HCC 2998, in the assay with Hs-578T, in the assay with Malme-3M, in the assay on UACC-62, in the assay with HOP-92 and in the assay with CCRF-CEM was > 100 µM (inactive) in each case. Also, in the assay with NCI-H460, the GI50 is > 100 µM (inactive).

As for `O=c1oc2cc(O)ccc2cc1-c1nc2ccccc2o1`, the GI50 with SNB-19 is 29.1 µM (inactive); in the assay with BT-549, 15.5 µM (inactive); in the assay with MDA-N, 40.8 µM (inactive); in the assay on OVCAR-5 it was > 100 µM (inactive); with UACC-257, 43.4 µM (inactive); with SNB-75 it was 63.8 µM (inactive). The GI50 in the assay on OVCAR-3 was 19.1 µM (inactive); with NCI-H226 it was 61.5 µM (inactive); in the assay with U-251, 28.7 µM (inactive); in the assay with RXF 393 it was < 0.01 µM (active); in the assay on SN12C, 49.7 µM (inactive); with HCC 2998, 39.8 µM (inactive). For the same molecule, the GI50 with Hs-578T is 33.4 µM (inactive); in the assay on Malme-3M it was 39.5 µM (inactive); in the assay with UACC-62, 20 µM (inactive); in the assay with HOP-92, 26.7 µM (inactive); in the assay on CCRF-CEM, 8.87 µM (inactive); in the assay with NCI-H460 it was 30.5 µM (inactive).

In the case of `CCc1c(Cc2cc(C)cc(C)c2)n2c(nc1=O)SCC2CBr` (centres undefined), the GI50 with SNB-19 is 23.1 µM (inactive); in the assay with BT-549, > 50 µM (inactive); in the assay on MDA-N it was > 50 µM (inactive); with OVCAR-5, > 50 µM (inactive); in the assay with UACC-257, > 50 µM (inactive); with SNB-75, 15.5 µM (inactive). In addition, the GI50 in the assay on NCI-H226 is > 50 µM (inactive); in the assay with U-251, 24.8 µM (inactive); in the assay with RXF 393 it was > 50 µM (inactive); in the assay on SN12C, > 50 µM (inactive); in the assay on HCC 2998, > 50 µM (inactive); in the assay on Hs-578T, > 50 µM (inactive). In addition, the GI50 in the assay on Malme-3M was 12.9 µM (inactive); in the assay on UACC-62, > 50 µM (inactive); in the assay on HOP-92, 9.93 µM (inactive); in the assay with CCRF-CEM, 12.6 µM (inactive); in the assay on NCI-H460 it was > 50 µM (inactive).
